target: T1, NTCP (Homo sapiens, UniProt Q14973); assay: [3H]-TCA uptake assay (NTCP inhibition); format: cell-based; conditions: IC50, given as a range, marked * (asterisk not explained)
T1 sequence (Q14973 1-349): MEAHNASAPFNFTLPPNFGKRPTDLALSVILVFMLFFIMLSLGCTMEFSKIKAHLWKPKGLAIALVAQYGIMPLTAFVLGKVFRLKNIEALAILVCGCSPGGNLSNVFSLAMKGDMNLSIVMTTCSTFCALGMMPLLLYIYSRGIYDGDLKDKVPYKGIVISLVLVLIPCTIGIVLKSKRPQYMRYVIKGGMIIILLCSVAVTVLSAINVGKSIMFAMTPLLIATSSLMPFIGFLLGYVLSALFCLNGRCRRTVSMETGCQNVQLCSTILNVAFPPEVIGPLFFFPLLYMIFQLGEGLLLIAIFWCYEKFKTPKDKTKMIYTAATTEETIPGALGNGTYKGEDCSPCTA
Procedure: [^3H]-TCA uptake assay. PTH and HepG2-NTCP cells were cultured in PMM for 24 hours to induce NTCP expression. After treated by DMSO or test compounds for 2 hours, the cells were then incubated with 1 μM [^3H]-taurocholate acid dissolved in Na^+ Ringer's buffer (the concentration of Na was 145 mM) for 15 minutes at 37° C. Subsequently, the cells were washed once in phosphate-buffered saline (PBS) and lysed in 50 μL 1% TritonX-100 in H2O for 5 minutes at room temperature. The lysate were totally transferred into a liquid scintillation 96 well plate and mixed with 200 μL liquid scintillation cocktail (Ultima Gold XR, PerkinElmer). Liquid scintillation counting was performed on a PerkinElmer 1450 LSC liquid scintillation counter.

SMILES	IC50 [nM]
CCC1NC(=O)C(C2OC(Oc3cccc(OCc4cccnc4)c3)CC2C)N(C)C(=O)C(C(C)C)N(C)C(=O)C(CC(C)C)N(C)C(=O)C(CC(C)C)N(C)C(=O)C(C)NC(=O)C(C)NC(=O)C(CC(C)C)N(C)C(=O)C(C(C)C)NC(=O)C(CC(C)C)N(C)C(=O)CN(C)C1=O (stereo not drawn) [53A + B(1:1.5)-o]	1000 to 100000
CCC1NC(=O)C(C2OC(Oc3ccccc3)CC2C)N(C)C(=O)C(C(C)C)N(C)C(=O)C(CC(C)C)N(C)C(=O)C(CC(C)C)N(C)C(=O)C(C)NC(=O)C(C)NC(=O)C(CC(C)C)N(C)C(=O)C(C(C)C)NC(=O)C(CC(C)C)N(C)C(=O)CN(C)C1=O (stereo not drawn) [Compound 1B-o]	1000 to 100000
CCC1NC(=O)C(C2OC(Oc3ccc(C)cc3)CC2C)N(C)C(=O)C(C(C)C)N(C)C(=O)C(CC(C)C)N(C)C(=O)C(CC(C)C)N(C)C(=O)C(C)NC(=O)C(C)NC(=O)C(CC(C)C)N(C)C(=O)C(C(C)C)NC(=O)C(CC(C)C)N(C)C(=O)CN(C)C1=O (stereo not drawn) [Compound 2A-o]	1000 to 100000

same assay, conditions: IC50, given as a range; assay not given

SMILES	IC50 [nM]
CCC1NC(=O)C(C2OC(Sc3ccccc3)CC2C)N(C)C(=O)C(C(C)C)N(C)C(=O)C(CC(C)C)N(C)C(=O)C(CC(C)C)N(C)C(=O)C(C)NC(=O)C(C)NC(=O)C(CC(C)C)N(C)C(=O)C(C(C)C)NC(=O)C(CC(C)C)N(C)C(=O)CN(C)C1=O [Compound 1B, [2-((2R,3R)-3-methyl-5-(phenylthio)tetrahydrofuran-2-yl)-2-(methylamino)acetic acid]^1-cyclosporin A]	1000 to 100000

same assay, conditions: given as a range; assay not given

SMILES	IC50 [nM]
CCC1NC(=O)C(C2OC(Oc3cccc(OCc4ccccc4)c3)CC2C)N(C)C(=O)C(C(C)C)N(C)C(=O)C(CC(C)C)N(C)C(=O)C(CC(C)C)N(C)C(=O)C(C)NC(=O)C(C)NC(=O)C(CC(C)C)N(C)C(=O)C(C(C)C)NC(=O)C(CC(C)C)N(C)C(=O)CN(C)C1=O (single isomer, unassigned) [Compound 12A-o]	1 to 1000
CCC1NC(=O)C(C2OC(Oc3cccc(OCc4ccccc4)c3)CC2C)N(C)C(=O)C(C(C)C)N(C)C(=O)C(CC(C)C)N(C)C(=O)C(CC(C)C)N(C)C(=O)C(C)NC(=O)C(C)NC(=O)C(CC(C)C)N(C)C(=O)C(C(C)C)NC(=O)C(CC(C)C)N(C)C(=O)CN(C)C1=O (single isomer, unassigned) [Compound 12B-o]	1 to 1000
CCC1NC(=O)C(C2OC(OC(C)c3ccccc3)CC2C)N(C)C(=O)C(C(C)C)N(C)C(=O)C(CC(C)C)N(C)C(=O)C(CC(C)C)N(C)C(=O)C(C)NC(=O)C(C)NC(=O)C(CC(C)C)N(C)C(=O)C(C(C)C)NC(=O)C(CC(C)C)N(C)C(=O)CN(C)C1=O (single isomer, unassigned) [Compound 78A]	1 to 1000
CCC1NC(=O)C(C2OC(OC(C)c3ccccc3)CC2C)N(C)C(=O)C(C(C)C)N(C)C(=O)C(CC(C)C)N(C)C(=O)C(CC(C)C)N(C)C(=O)C(C)NC(=O)C(C)NC(=O)C(CC(C)C)N(C)C(=O)C(C(C)C)NC(=O)C(CC(C)C)N(C)C(=O)CN(C)C1=O (single isomer, unassigned) [Compound 78B]	1 to 1000
CCC1NC(=O)C(C2OC(OC(C)c3ccccc3)CC2C)N(C)C(=O)C(C(C)C)N(C)C(=O)C(CC(C)C)N(C)C(=O)C(CC(C)C)N(C)C(=O)C(C)NC(=O)C(C)NC(=O)C(CC(C)C)N(C)C(=O)C(C(C)C)NC(=O)C(CC(C)C)N(C)C(=O)CN(C)C1=O (single isomer, unassigned) [Compound 79A]	1 to 1000
CCC1NC(=O)C(C2OC(OCc3ccccc3OC)CC2C)N(C)C(=O)C(C(C)C)N(C)C(=O)C(CC(C)C)N(C)C(=O)C(CC(C)C)N(C)C(=O)C(C)NC(=O)C(C)NC(=O)C(CC(C)C)N(C)C(=O)C(C(C)C)NC(=O)C(CC(C)C)N(C)C(=O)CN(C)C1=O (single isomer, unassigned) [Compound 82A]	1 to 1000
CCC1NC(=O)C(C2OC(OCc3ccccc3OC)CC2C)N(C)C(=O)C(C(C)C)N(C)C(=O)C(CC(C)C)N(C)C(=O)C(CC(C)C)N(C)C(=O)C(C)NC(=O)C(C)NC(=O)C(CC(C)C)N(C)C(=O)C(C(C)C)NC(=O)C(CC(C)C)N(C)C(=O)CN(C)C1=O (single isomer, unassigned) [Compound 82B]	1 to 1000
CCC1NC(=O)C(C2OC(OCc3cccc(Cl)c3OC)CC2C)N(C)C(=O)C(C(C)C)N(C)C(=O)C(CC(C)C)N(C)C(=O)C(CC(C)C)N(C)C(=O)C(C)NC(=O)C(C)NC(=O)C(CC(C)C)N(C)C(=O)C(C(C)C)NC(=O)C(CC(C)C)N(C)C(=O)CN(C)C1=O (single isomer, unassigned) [Compound 88A]	1 to 1000
CCC1NC(=O)C(C2OC(OCc3cccc(Cl)c3OC)CC2C)N(C)C(=O)C(C(C)C)N(C)C(=O)C(CC(C)C)N(C)C(=O)C(CC(C)C)N(C)C(=O)C(C)NC(=O)C(C)NC(=O)C(CC(C)C)N(C)C(=O)C(C(C)C)NC(=O)C(CC(C)C)N(C)C(=O)CN(C)C1=O (single isomer, unassigned) [Compound 88B]	1 to 1000
CCC1NC(=O)C(C2OC(OCc3ccc(Cl)cc3Cl)CC2C)N(C)C(=O)C(C(C)C)N(C)C(=O)C(CC(C)C)N(C)C(=O)C(CC(C)C)N(C)C(=O)C(C)NC(=O)C(C)NC(=O)C(CC(C)C)N(C)C(=O)C(C(C)C)NC(=O)C(CC(C)C)N(C)C(=O)CN(C)C1=O (single isomer, unassigned) [Compound 89A]	1 to 1000
CCC1NC(=O)C(C2OC(OCc3ccc(Cl)cc3Cl)CC2C)N(C)C(=O)C(C(C)C)N(C)C(=O)C(CC(C)C)N(C)C(=O)C(CC(C)C)N(C)C(=O)C(C)NC(=O)C(C)NC(=O)C(CC(C)C)N(C)C(=O)C(C(C)C)NC(=O)C(CC(C)C)N(C)C(=O)CN(C)C1=O (single isomer, unassigned) [Compound 89B]	1 to 1000
CCC1NC(=O)C(C2OC(OCc3c(Cl)cccc3Cl)CC2C)N(C)C(=O)C(C(C)C)N(C)C(=O)C(CC(C)C)N(C)C(=O)C(CC(C)C)N(C)C(=O)C(C)NC(=O)C(C)NC(=O)C(CC(C)C)N(C)C(=O)C(C(C)C)NC(=O)C(CC(C)C)N(C)C(=O)CN(C)C1=O (single isomer, unassigned) [Compound 90A]	1 to 1000
CCC1NC(=O)C(C2OC(OCc3c(Cl)cccc3Cl)CC2C)N(C)C(=O)C(C(C)C)N(C)C(=O)C(CC(C)C)N(C)C(=O)C(CC(C)C)N(C)C(=O)C(C)NC(=O)C(C)NC(=O)C(CC(C)C)N(C)C(=O)C(C(C)C)NC(=O)C(CC(C)C)N(C)C(=O)CN(C)C1=O (single isomer, unassigned) [Compound 90B]	1 to 1000
CCC1NC(=O)C(C2OC(OC(C)c3ccc(Cl)c(Cl)c3)CC2C)N(C)C(=O)C(C(C)C)N(C)C(=O)C(CC(C)C)N(C)C(=O)C(CC(C)C)N(C)C(=O)C(C)NC(=O)C(C)NC(=O)C(CC(C)C)N(C)C(=O)C(C(C)C)NC(=O)C(CC(C)C)N(C)C(=O)CN(C)C1=O (single isomer, unassigned) [Compound 96A]	1 to 1000
CCC1NC(=O)C(C2OC(OC(C)c3ccc(Cl)c(Cl)c3)CC2C)N(C)C(=O)C(C(C)C)N(C)C(=O)C(CC(C)C)N(C)C(=O)C(CC(C)C)N(C)C(=O)C(C)NC(=O)C(C)NC(=O)C(CC(C)C)N(C)C(=O)C(C(C)C)NC(=O)C(CC(C)C)N(C)C(=O)CN(C)C1=O (single isomer, unassigned) [Compound 97A]	1 to 1000
CCC1NC(=O)C(C2OC(OCc3cc(F)c(Cl)cc3Cl)CC2C)N(C)C(=O)C(C(C)C)N(C)C(=O)C(CC(C)C)N(C)C(=O)C(CC(C)C)N(C)C(=O)C(C)NC(=O)C(C)NC(=O)C(CC(C)C)N(C)C(=O)C(C(C)C)NC(=O)C(CC(C)C)N(C)C(=O)CN(C)C1=O (single isomer, unassigned) [Compound 101A]	1 to 1000
CCC1NC(=O)C(C2OC(OCc3cc(F)c(Cl)cc3Cl)CC2C)N(C)C(=O)C(C(C)C)N(C)C(=O)C(CC(C)C)N(C)C(=O)C(CC(C)C)N(C)C(=O)C(C)NC(=O)C(C)NC(=O)C(CC(C)C)N(C)C(=O)C(C(C)C)NC(=O)C(CC(C)C)N(C)C(=O)CN(C)C1=O (single isomer, unassigned) [Compound 101B]	1 to 1000
CCC1NC(=O)C(C2OC(OCc3cc(Cl)ccc3Cl)CC2C)N(C)C(=O)C(C(C)C)N(C)C(=O)C(CC(C)C)N(C)C(=O)C(CC(C)C)N(C)C(=O)C(C)NC(=O)C(C)NC(=O)C(CC(C)C)N(C)C(=O)C(C(C)C)NC(=O)C(CC(C)C)N(C)C(=O)CN(C)C1=O [98A + B(1:1), [2-((2R,3R)-5-(2,5-dichlorobenzyloxy)-3-methyltetrahydrofuran-2-yl)-2-(methylamino)acetic acid]^1-cyclosporin A]	1 to 1000
CCC1NC(=O)C(C2OC(OCc3ccc(N4CCOCC4)cc3)CC2C)N(C)C(=O)C(C(C)C)N(C)C(=O)C(CC(C)C)N(C)C(=O)C(CC(C)C)N(C)C(=O)C(C)NC(=O)C(C)NC(=O)C(CC(C)C)N(C)C(=O)C(C(C)C)NC(=O)C(CC(C)C)N(C)C(=O)CN(C)C1=O [99A + B(1:1.1), [2-((2R,3R)-3-methyl-5-(4-morpholinobenzyloxy)tetrahydrofuran-2-yl)-2-(methylamino)acetic acid]^1-cyclosporin A]	1 to 1000
CCC1NC(=O)C(C2OC(Sc3ccc(C)cc3)CC2C)N(C)C(=O)C(C(C)C)N(C)C(=O)C(CC(C)C)N(C)C(=O)C(CC(C)C)N(C)C(=O)C(C)NC(=O)C(C)NC(=O)C(CC(C)C)N(C)C(=O)C(C(C)C)NC(=O)C(CC(C)C)N(C)C(=O)CN(C)C1=O [Compound 2A, [2-((2R,3R)-3-methyl-5-(p-tolylthio)tetrahydrofuran-2-yl)-2-(methylamino)acetic acid]^1-cyclosporin A]	1 to 1000

From patent publication US10961231B2, “NTCP inhibitors” (National Institute of Biological Sciences, Beijing, priority 2018, dated 2021)
